Source: patent US9856220B2 (AbbVie Deutschland GmbH & Co. KG, priority 2011, dated 2018)

Target: PDE10A (Homo sapiens (Human), UniProt Q9Y233)
Experiment: Measurement of PDE activity (recombinant PDE, cAMP HTRF)
Format: biochemical
Conditions: 20 nM cyclic nucleotide substrate, 60 minutes at 29 C
Procedure: a) Measurement of PDE Activity
The recombinant PDE proteins are used in in vitro enzymatic reaction for measurement of PDE activity. These recombinant proteins, including PDE10A (human, rat and mouse PDE10) and isoforms of PDEs 1, 3, 4, and 5, were purchased from commercial vendor BPS Bioscience. The enzymatic activity of PDEs was determined by cAMP measurement kit from CisBio (IBA) using HTRF technology.
The PDE enzymatic reaction was carried out in assay buffer (20 mM Tris-HCl pH7.5, 10 mM MgCl2, 0.1% bovine serum albumin) containing enzyme and substrate. […] The substrate cyclic nucleotide (cAMP or cGMP) concentration used in the assay was 20 nM for PDE10, and 100 nM for other PDEs. The inhibitory effect of compound was determined by incubating various concentration of inhibitor in the enzymatic assay. […] Next, the compound at varying concentration was mixed with PDE enzyme. The reaction was initiated by addition of cyclic nucleotide substrate, and incubated for 60 minutes at 29 C. The reaction was stopped by addition of lysis buffer from assay kit. The cAMP-d2 and anti-cAMP cryptate in the lysis buffer detected the level of cAMP left from the PDE hydrolysis reaction. […] Thus, IC50 value of inhibitor can be obtained by plotting inhibitor concentration against PDE activity at that concentration.

Chain of PDE10A (Q9Y233 whole entry, species assumed): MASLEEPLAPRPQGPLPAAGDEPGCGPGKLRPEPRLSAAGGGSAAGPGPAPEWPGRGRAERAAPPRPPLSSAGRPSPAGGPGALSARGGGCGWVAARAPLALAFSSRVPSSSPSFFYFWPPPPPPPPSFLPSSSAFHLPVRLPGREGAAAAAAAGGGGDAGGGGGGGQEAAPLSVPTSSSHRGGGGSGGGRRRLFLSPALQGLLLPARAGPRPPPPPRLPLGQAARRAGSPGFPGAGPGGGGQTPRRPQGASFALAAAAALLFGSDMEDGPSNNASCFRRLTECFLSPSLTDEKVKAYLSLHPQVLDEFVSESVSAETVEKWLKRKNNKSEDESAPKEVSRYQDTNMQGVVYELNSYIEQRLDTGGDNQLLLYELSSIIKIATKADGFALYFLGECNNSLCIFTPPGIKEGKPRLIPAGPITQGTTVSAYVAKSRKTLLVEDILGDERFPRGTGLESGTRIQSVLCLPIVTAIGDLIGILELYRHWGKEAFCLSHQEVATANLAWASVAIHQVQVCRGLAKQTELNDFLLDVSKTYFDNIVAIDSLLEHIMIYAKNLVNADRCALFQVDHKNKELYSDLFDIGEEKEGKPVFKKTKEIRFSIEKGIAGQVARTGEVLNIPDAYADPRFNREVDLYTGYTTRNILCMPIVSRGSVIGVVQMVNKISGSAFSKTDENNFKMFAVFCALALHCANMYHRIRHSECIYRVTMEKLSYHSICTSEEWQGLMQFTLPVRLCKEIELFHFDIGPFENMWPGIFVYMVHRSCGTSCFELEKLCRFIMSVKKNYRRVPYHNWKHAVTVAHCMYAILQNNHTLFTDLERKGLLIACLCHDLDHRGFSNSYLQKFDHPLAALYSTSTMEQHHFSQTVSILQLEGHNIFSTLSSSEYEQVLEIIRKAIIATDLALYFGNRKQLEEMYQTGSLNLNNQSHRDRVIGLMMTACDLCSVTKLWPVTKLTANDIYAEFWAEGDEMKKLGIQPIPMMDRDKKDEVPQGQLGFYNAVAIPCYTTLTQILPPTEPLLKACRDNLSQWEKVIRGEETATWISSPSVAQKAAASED

Row | SMILES | IC50
1 | CCn1cc(C(=O)NCc2ccc(C)cc2OC(C)C)c2cc(OC)c(OC)cc2c1=O [Example 302, 2-Ethyl-N-(2-isopropoxy-4-methylbenzyl)-6,7-dimethoxy-1-oxo-1,2-dihydroisoquinoline-4-carboxamide] | 200 to 500 nM
2 | CCn1cc(C(=O)NC2CCc3cc(Cl)ccc32)c2cc(OC)c(OC)cc2c1=O (centres unmarked) [Example 169, N-(5-Chloro-2,3-dihydro-1H-inden-1-yl)-2-ethyl-6,7-dimethoxy-1-oxo-1,2-dihydroisoquinoline-4-carboxamide] | 200 to 500 nM
3 | CCC(CC)n1cc(C(=O)NC2CCc3c(Cl)cccc32)c2cc(OC)c(OC)cc2c1=O (centres unmarked) [Example 265, N-(4-Chloro-2,3-dihydro-1H-inden-1-yl)-6,7-dimethoxy-1-oxo-2-(pentan-3-yl)-1,2-dihydroisoquinoline-4-carboxamide] | 200 to 500 nM
4 | CCn1cc(C(=O)NCc2ccc(C)cc2OCC2CCCO2)c2cc(OC)c(OC)cc2c1=O (centres unmarked) [Example 305, 2-Ethyl-6,7-dimethoxy-N-(4-methyl-2-((tetrahydrofuran-2-yl)methoxy)benzyl)-1-oxo-1,2-dihydroisoquinoline-4-carboxamide] | 200 to 500 nM
5 | CCn1cc(C(=O)NCc2ccccc2Cl)c2cc(OC)c(OC)cc2c1=O [Example 162, N-(2-Chlorobenzyl)-2-ethyl-6,7-dimethoxy-1-oxo-1,2-dihydroisoquinoline-4-carboxamide] | 200 to 500 nM
6 | CCn1cc(C(=O)NCc2cccnc2)c2cc(OC)c(OC)cc2c1=O [Example 148, 2-Ethyl-6,7-dimethoxy-1-oxo-N-(pyridin-3-ylmethyl)-1,2-dihydroisoquinoline-4-carboxamide] | 200 to 500 nM
7 | CCn1cc(C(=O)NCc2ccccc2F)c2cc(OC)c(OC)cc2c1=O [Example 30, 2-Ethyl-6,7-dimethoxy-1-oxo-1,2-dihydro-isoquinoline-4-carboxylic acid 2-fluoro-benzylamide] | 200 to 500 nM

The next lines start with the values.

Row | IC50 | SMILES
8 | 200 to 500 nM | CCC(CC)n1cc(C(=O)NCc2ccoc2C)c2cc(OC)c(OC)cc2c1=O [Example 268, 6,7-Dimethoxy-N-((2-methylfuran-3-yl)methyl)-1-oxo-2-(pentan-3-yl)-1,2-dihydroisoquinoline-4-carboxamide]
9 | < 100 nM | CCC(CC)n1cc(C(=O)NC2CCc3sccc32)c2cc(OC)c(OC)cc2c1=O (centres unmarked) [Example 193, 2-(1-Ethyl-propyl)-6,7-dimethoxy-1-oxo-1,2-dihydro-isoquinoline-4-carboxylic acid (5,6-dihydro-4H-cyclopenta[b]thiophen-4-yl)-amide]
10 | < 100 nM | CCC(CC)n1cc(C(=O)NC2CSc3ccccc32)c2cc(OC)c(OC)cc2c1=O (centres unmarked) [Example 216, 2-(1-Ethyl-propyl)-6,7-dimethoxy-1-oxo-1,2-dihydro-isoquinoline-4-carboxylic acid (2,3-dihydro-benzo[b]thiophen-3-yl)-amide]
11 | < 100 nM | CCC(CC)n1cc(C(=O)NC2CCc3ccccc32)c2cc(OC)c(OC)cc2c1=O (centres unmarked) [Example 135, 2-(1-Ethyl-propyl)-6,7-dimethoxy-1-oxo-1,2-dihydro-isoquinoline-4-carboxylic acid indan-1-ylamide]
12 | 100 to 200 nM | CCn1cc(C(=O)NCc2ccc(F)c(F)c2)c2cc(OC)c(OC)cc2c1=O [Example 36, 2-Ethyl-6,7-dimethoxy-1-oxo-1,2-dihydro-isoquinoline-4-carboxylic acid 3,4-difluoro-benzylamide]
13 | < 100 nM | CCCCNC(=O)c1cn(CCc2ccc3ccccc3n2)c(=O)c2cc(OC)c(OC)cc12 [Example 322, N-Butyl-6,7-dimethoxy-1-oxo-2-[2-(2-quinolyl)ethyl]isoquinoline-4-carboxamide; 2,2,2-trifluoroacetic acid]
14 | 100 to 200 nM | CCn1cc(C(=O)NCc2cc(F)cc(F)c2)c2cc(OC)c(OC)cc2c1=O [Example 37, 2-Ethyl-6,7-dimethoxy-1-oxo-1,2-dihydro-isoquinoline-4-carboxylic acid 3,5-difluoro-benzylamide]
